A word on the EC50: it is the concentration giving half of the maximal effect. One may read the IC50 as the concentration needed to halve the response being measured. The term viability denotes a read-out of living cells in per cent, often relative to untreated cells.

We go through two compounds from article PMC4041848, “Differential Effects of Omeprazole and Lansoprazole Enantiomers on Aryl Hydrocarbon Receptor in Human Hepatocytes and Cell Lines” (PLoS ONE, 2014).

Read-outs that look alike come from different tables or passages of the source. Where only a bound is given, the exact number is not on record here.

Series [1] has as its system CYP1A2 mRNA. Kind of series: CYP1A2 mRNA induction in primary human hepatocytes (qRT-PCR). The settings on record: hepatocyte culture HH52, 24 h, 100 µM. The source says: (§1) Primary human hepatocytes used in this study were obtained from two sources: (i) from multiorgan donor HH52; the use of liver cells of donor HH52 was approved by “Ethical committee at the Faculty Hospital Olomouc”,and it was in accordance with Transplantation law #285/2002 Sb; “Ethical committee at the Faculty Hospital Olomouc” waived the authors from obtaining consent from the next of kin, regarding human hepatocytes obtained from liver donor HH52. (ii) long-term human hepatocytes in monolayer Batch HEP220770 (person), Batch HEP220774 (person) were purchased from Biopredic International (Biopredic International, Rennes, France). Cells were cultured in serum-free medium. Cultures were maintained at 37°C and 5% CO2 in a humidified incubator.
Total RNA was isolated using TRI Reagent (Molecular Research Center, Cincinnati, OH, USA). cDNA was synthesized from 1000 ng of total RNA using M-MLV Reverse Transcriptase (Finnzymes, Espoo, Finland) at 42°C for 60 min in the presence of random hexamers (Takara, Shiga, Japan). qRT-PCR was carried out using LightCycler FastStart DNA MasterPLUS SYBR Green I (Roche Diagnostic Corporation, Prague, Czech Republic) on a Light Cycler 480 II apparatus (Roche Diagnostic Corporation). CYP1A1, CYP1A2 and GAPDH mRNAs were determined as described previously. Measurements were performed in triplicates. […]
A general note: Quantitative PCR measures a nucleic acid by following its amplification.

The subject of series [2] is aryl hydrocarbon receptor AhR. The series is described as follows: AhR gene reporter assay, agonist mode. The procedure: (§2) A stably transfected gene reporter cell line AZ-AHR, derived from human hepatoma HepG2 cells transfected with a construct containing several AhR binding sites upstream of a luciferase reporter gene, was used for assessment of AhR transcriptional activity. Cells were incubated for 24 h with tested compounds and/or vehicle (DMSO; 0.1% v/v), in the presence or absence of TCDD (10 nM; AZ-AHR cells) or DEX (100 nM; AZ-GR cells). After the treatments, cells were lysed and luciferase activity was measured. In parallel, cell viability was determined by conventional MTT test.
(§3) Figure 1 Effect of omeprazole and lansoprazole enantiomers on transcriptional activity of aryl hydrocarbon receptor AhR in human gene reporter cell line AZ-AHR. The cells were seeded in 96-well plates and stabilized for 16 h. Panels A and B: Cells were incubated for 24 h with S-OME, R-OME, rac-OME, S-LAN, R-LAN and rac-LAN at concentrations ranging from 10^−10 M to 10^−4 M. The vehicle was DMSO (0.1% v/v). After the treatment, MTT test was performed and absorbance was measured at 540 nm. Treatments were performed in triplicates. The data are the mean from experiments from six different passages of cells and are expressed as a percentage of viability of control cells. The values of IC50 were calculated and are indicated in a figure. Panels C - F: AZ-AHR cells were incubated for 24 h with S-OME, R-OME, rac-OME, S-LAN, R-LAN and rac-LAN at concentrations ranging from 10^−10 M to 10^−4 M in the absence (Panels C and D - agonist mode) or in the presence (Panels E and F- antagonist mode) of TCDD (5 nM). The vehicle was DMSO (0.1% v/v). After the treatments, cells were lysed and luciferase activity was measured. Treatments were performed in triplicates in five (agonist mode) or four (antagonist mode) independent cell passages. […] Data are expressed as a fold induction of luciferase activity over control cells (Panels C and D - agonist mode) or as a percentage of maximal induction attained by TCDD (Panels E and F- antagonist mode).
Gene reporter assays were performed in two different experimental layouts. […] In antagonist mode, cells were incubated with increasing concentrations of tested compounds in combination with model agonist (TCDD; 5 nM), and half-maximal inhibitory concentrations (IC50) were calculated. […] The efficacy was calculated at concentration of compounds of 100 µM and compared to 5 nM TCDD (Figure 1C).
On the technique in general: In a reporter assay the amount or activity of a reporter protein is the signal.

The test system of series [3] is aryl hydrocarbon receptor AhR. The series is described as follows: AhR gene reporter assay, antagonist mode (with TCDD). The note with it: read-out: AhR antagonist IC50; AZ-AHR cells, 24 h, in the presence of TCDD (5 nM), average of four passages. As to the method: as §2
Figure 1 Effect of omeprazole and lansoprazole enantiomers on transcriptional activity of aryl hydrocarbon receptor AhR in human gene reporter cell line AZ-AHR. The cells were seeded in 96-well plates and stabilized for 16 h. […] After the treatment, MTT test was performed and absorbance was measured at 540 nm. […] The data are the mean from experiments from six different passages of cells and are expressed as a percentage of viability of control cells. The values of IC50 were calculated and are indicated in a figure. […] After the treatments, cells were lysed and luciferase activity was measured. […] Data are expressed as a fold induction of luciferase activity over control cells (Panels C and D - agonist mode) or as a percentage of maximal induction attained by TCDD (Panels E and F- antagonist mode). […]

For series [4], the system named is AZ-AHR cells. The series is described as follows: MTT cytotoxicity test in AZ-AHR reporter cells. The settings on record: AZ-AHR cells, 24 h, MTT, concentrations up to 250 µM. The procedure: as §2
(§4) In the first series of experiments, the cytotoxicity of tested compounds was assessed in gene reporter cell line AZ-AHR. For this purpose, the cells were incubated for 24 h with S-OME, R-OME, rac-OME, S-LAN, R-LAN and rac-LAN at concentration ranging from 100 pM to 250 µM. The vehicle was DMSO (0.1% v/v). After the treatment, a conventional MTT test was performed.
as §3
For orientation: Tetrazolium dyes change colour on reduction, which living cells bring about.

For series [5], the system named is CYP1A1 mRNA. Kind of series: CYP1A1 mRNA induction in primary human hepatocytes (qRT-PCR). The note with it: hepatocyte culture Hep220770, 24 h, 100 µM.
Source text: as §1
Total RNA was isolated using TRI Reagent (Molecular Research Center, Cincinnati, OH, USA). cDNA was synthesized from 1000 ng of total RNA using M-MLV Reverse Transcriptase (Finnzymes, Espoo, Finland) at 42°C for 60 min in the presence of random hexamers (Takara, Shiga, Japan). qRT-PCR was carried out using LightCycler FastStart DNA MasterPLUS SYBR Green I (Roche Diagnostic Corporation, Prague, Czech Republic) on a Light Cycler 480 II apparatus (Roche Diagnostic Corporation). CYP1A1, CYP1A2 and GAPDH mRNAs were determined as described previously. Measurements were performed in triplicates. Gene expression was normalized to GAPDH as a housekeeping gene.
We examined a capability of omeprazole and lansoprazole to induce CYP1A1 and CYP1A2 mRNA and protein in primary human hepatocytes, which is a more physiological and metabolically competent cell model. Human hepatocytes were treated for 24 h or 48 h with TCDD (5 nM), vehicle (DMSO; 0.1% V/V) and tested compounds.
Figure 3 Effects of omeprazole and lansoprazole enantiomers on CYP1A1 mRNA, protein and EROD activity in primary human hepatocytes. Panel A and Panel B: RT-PCR analyses of CYP1A1 and CYP1A2 mRNA and western blots of CYP1A1 and CYP1A2 from two different cultures (HH52 and Hep220770) are shown. Human hepatocytes were incubated for 24 h (mRNA analysis) or 48 (protein analysis) with S-OME, R-OME, rac-OME, S-LAN, R-LAN, rac-LAN, TCDD and vehicle (DMSO; 0.1% v/v). RT-PCR data are the mean ± SD from triplicate measurements and are expressed as fold induction over vehicle-treated cells. Data were normalized to GAPDH mRNA levels. Density of bands in western blots was quantified by densitometry and the values are indicated along with respective blots. Panel C: EROD and cytotoxicity: Human hepatocytes (culture Hep220774) were treated for 24 h with S-OME, R-OME, rac-OME, S-LAN, R-LAN, rac-LAN, TCDD and vehicle (DMSO; 0.1% v/v). Upper bar graph: An activity of 7-ethoxyresorufin- O-deethylase (EROD) was measured by fluorescent spectrophotometry with 530 nm excitation and 590 nm emission filters. Treatments were performed in triplicates. The data are expressed as fold induction over the value from control cells. Lower bar graph: A conventional MTT test was performed and absorbance was measured at 540 nm. Treatments were performed in triplicates. The data are expressed as percentage of viability of control cells.

Series [6] is described as follows: MTT cytotoxicity test in primary human hepatocytes. The settings on record: female, human, primary human hepatocytes, culture Hep220774. The procedure: Figure 3 Effects of omeprazole and lansoprazole enantiomers on CYP1A1 mRNA, protein and EROD activity in primary human hepatocytes. Panel A and Panel B: RT-PCR analyses of CYP1A1 and CYP1A2 mRNA and western blots of CYP1A1 and CYP1A2 from two different cultures (HH52 and Hep220770) are shown. Human hepatocytes were incubated for 24 h (mRNA analysis) or 48 (protein analysis) with S-OME, R-OME, rac-OME, S-LAN, R-LAN, rac-LAN, TCDD and vehicle (DMSO; 0.1% v/v). RT-PCR data are the mean ± SD from triplicate measurements and are expressed as fold induction over vehicle-treated cells. Data were normalized to GAPDH mRNA levels. Density of bands in western blots was quantified by densitometry and the values are indicated along with respective blots. Panel C: EROD and cytotoxicity: Human hepatocytes (culture Hep220774) were treated for 24 h with S-OME, R-OME, rac-OME, S-LAN, R-LAN, rac-LAN, TCDD and vehicle (DMSO; 0.1% v/v). Upper bar graph: An activity of 7-ethoxyresorufin- O-deethylase (EROD) was measured by fluorescent spectrophotometry with 530 nm excitation and 590 nm emission filters. Treatments were performed in triplicates. The data are expressed as fold induction over the value from control cells. Lower bar graph: A conventional MTT test was performed and absorbance was measured at 540 nm. […] The data are expressed as percentage of viability of control cells. […]

The subject of series [7] is CYP1A2 protein. Kind of series: CYP1A2 protein induction in primary human hepatocytes (western blot). The settings on record: both hepatocyte cultures (HH52, Hep220770), 48 h, 10 µM.
Source text: as §1
Total protein extracts were prepared from cells cultured on 6-well plates. Cells were washed twice with ice-cold PBS and scraped into 1 ml of PBS. The suspension was centrifuged (4500 RPM/5 min/4°C) and the pellet was resuspended in 150 µl of ice-cold lysis buffer (150 mM NaCl; 10 mM Tris pH 7.2; 0.1% (w/v) SDS; anti-protease cocktail, 1% (v/v) Triton X-100; anti-phosphatase cocktail, 1% (v/v) sodium deoxycholate; 5 mM EDTA). […] Supernatant was collected and the protein content was determined by the Bradford reagent. […] The density of bands was measured by densitometry. […]
Figure 3 Effects of omeprazole and lansoprazole enantiomers on CYP1A1 mRNA, protein and EROD activity in primary human hepatocytes. […] RT-PCR data are the mean ± SD from triplicate measurements and are expressed as fold induction over vehicle-treated cells. […] Density of bands in western blots was quantified by densitometry and the values are indicated along with respective blots. […] Upper bar graph: An activity of 7-ethoxyresorufin- O-deethylase (EROD) was measured by fluorescent spectrophotometry with 530 nm excitation and 590 nm emission filters. […] The data are expressed as fold induction over the value from control cells. Lower bar graph: A conventional MTT test was performed and absorbance was measured at 540 nm. […] The data are expressed as percentage of viability of control cells.

Series [8] is described as follows: MTT cytotoxicity test in AZ-AHR reporter cells. The settings on record: human. The procedure:
as §2, §4, §3

Consider `COc1ccc2nc([S@+]([O-])Cc3ncc(C)c(OC)c3C)[nH]c2c1` [R-OME, R-omeprazole], for which, in series [1], the “CYP1A2 mRNA induction” value is 71 % of TCDD induction. Besides, in series [2], the AhR agonist efficacy is recorded as 48.6±26.8%. The EC50 in series [2] (read-out: AhR agonist EC50, AZ-AHR cells, 24 h, luciferase, average of five passages) was 35.1 ± 3.7 µM. In series [3], the IC50 is 54.8 ± 25.9 µM. In series [4], the “cytotoxicity” value is reported as “not cytotoxic”.
On to `COc1ccc2nc([S@@+]([O-])Cc3ncc(C)c(OC)c3C)[nH]c2c1` [S-OME, S-omeprazole], for which, in series [5], the “CYP1A1 mRNA induction” value came out at 736 fold. Besides, the AhR agonist efficacy in series [2] (AZ-AHR cells, 24 h, compared to 5 nM TCDD, calculated at 100 µM compound (stated for omeprazole)) is given as 44.8±11.8%. Moreover, the EC50 at 24 h in series [2] (human) stood at 22.9 ± 7.9 µM. For the same compound, the viability at 24 h, 250 µM in series [6] came out at 60%. Further, the “CYP1A2 protein induction” value in series [7] is reported as “strongly induced”. Also, the IC50 at 24 h in series [8] is more than 250 µM. Besides, the “cytotoxicity” value in series [4] is on record as “not cytotoxic”.
